In PMC9797896 (Medicinal Chemistry Research, 2022):
“And” between values parts separate entries of the source, which are not always exact repeats. Identical values can stand only once. Like-named read-outs stand apart in the source and are kept apart here.

System: SARS-CoV-2 (Omicron variant, B.1.1.529/BA.2 sublineage)
Experiment: microbe, parasite or virus in culture
Format: cell-based
Conditions: for EC50 / EC90: Severe acute respiratory syndrome coronavirus 2, Vero C1008, 48 h; for EC90: read-out: 90% Reduction in Infectious Virus (EC90); for time to maximal effectiveness against the Omicron variant particles: after starting administration and treatment
[1] = read-out: 50% Reduction in Infectious Virus (EC50)
[2] = read-out: 50% Reduction in Viral RNA Copy (EC50)

SMILES: O=c1[nH]cnc2c([C@@H]3N[C@H](CO)[C@@H](O)[C@H]3O)c[nH]c12 [Forodesine, forodesine]
- 100% CPE Inhibitory Concentration (CPEIC100): 1.69 ± 0.06 µM
- EC50 [1]: ~0.7 µM
- EC50 [2]: 0.73 ± 0.04 µM
- EC90: 2.2 ± 0.06 µM
- time to maximal effectiveness against the Omicron variant particles: 4 to 10 h
- 100% CPE Inhibitory Concentration (CPEIC100) (listed as forodesine): 1.69 µM

SMILES: CC(C)Nc1nc2cc(Cl)c(Cl)cc2n1[C@H]1O[C@@H](CO)[C@H](O)[C@@H]1O [Maribavir, maribavir]
- 100% CPE Inhibitory Concentration (CPEIC100): 7.97 ± 0.27 µM
- EC50 [1]: 3.05 ± 0.13 µM
- EC50 [2]: 3.2 ± 0.14 µM
- EC90: 12.3 ± 0.33 µM

SMILES: CC(C)C(=O)OC[C@H]1O[C@@H](n2ccc(NO)nc2=O)[C@H](O)[C@@H]1O [Molnupiravir, molnupiravir]
- 100% CPE Inhibitory Concentration (CPEIC100): 6.28 µM and 6.28 ± 0.28 µM
- EC50 [1]: 2.61 ± 0.1 µM
- EC50 [2]: 2.73 ± 0.11 µM
- EC90: 9.1 ± 0.31 µM

SMILES: COc1nc(N)nc2c1ncn2[C@@H]1O[C@H](CO)[C@@H](O)[C@@H]1O [Nelarabine, nelarabine]
- EC50 [1]: 1.68 ± 0.08 µM
- EC50 [2]: 1.75 ± 0.08 µM
- EC90: 6.46 ± 0.18 µM

SMILES: CCC(CC)COC(=O)[C@H](C)N[P@](=O)(OC[C@H]1O[C@@](C#N)(c2ccc3c(N)ncnn23)[C@H](O)[C@@H]1O)Oc1ccccc1 [Remdesivir, remdesivir]
- 100% CPE Inhibitory Concentration (CPEIC100): 5.99 µM and 5.99 ± 0.20 µM
- EC50 [1]: 2.07 ± 0.08 µM
- EC90: 8.01 ± 0.29 µM

SMILES: CC(C)=CCNc1ncnc2c1ncn2[C@@H]1O[C@H](CO)[C@@H](O)[C@H]1O [Riboprine, N^6-(2-Isopentenyl)adenosine]
- 100% CPE Inhibitory Concentration (CPEIC100): 1.21 µM and 1.21 ± 0.04 µM
- EC50 [1]: ~0.45 µM
- EC50 [2]: 0.48 ± 0.03 µM
- EC90: 1.71 ± 0.05 µM
- time to maximal effectiveness against the Omicron variant particles: 4 to 10 h

SMILES: OC[C@H]1O[C@@H](n2cnc3c(N[C@@H]4CCOC4)ncnc32)[C@H](O)[C@@H]1O [Tecadenoson, tecadenoson]
- 100% CPE Inhibitory Concentration (CPEIC100): 7.73 ± 0.23 µM
- EC50 [1]: 2.9 ± 0.1 µM
- EC50 [2]: 2.95 ± 0.11 µM
- EC90: 11.9 ± 0.32 µM

SMILES: Nc1ncnc2c1ncn2[C@@H]1O[C@H](CO)[C@@H](O)[C@@H]1O [Vidarabine, Arabinosyladenine]
- 100% CPE Inhibitory Concentration (CPEIC100): 8.10 ± 0.25 µM
- EC50 [1]: 3.2 ± 0.13 µM
- EC50 [2]: 3.23 ± 0.13 µM
- EC90: 12.6 ± 0.35 µM
